In ChEMBL document CHEMBL4689842, “EUbOPEN Chemogenomics Library wave 1” (2021):

Experiments:
Type in all cases: toxicity, cell-based
HEK-293T = experiment: Incucyte cell viability with HEK293T; settings: human, 10 µM, compound concentration 10 uM
Fibroblast = experiment: Incucyte cell viability with human fibroblast; settings: 10 µM, compound concentration 10 uM
U2OS = experiment: Incucyte cell viability with U2OS; settings: human, 10 µM, compound concentration 10 uM
[1] = 0 h, replicate number 1, timepoint 0 hours
[2] = 6 h, replicate number 2, timepoint 6 hours
[3] = 12 h, replicate number 2, timepoint 12 hours
[4] = 18 h, replicate number 1, timepoint 18 hours
[5] = 24 h, replicate number 1, timepoint 24 hours
[6] = 24 h, replicate number 2, timepoint 24 hours
[7] = 0 h, replicate number 2, timepoint 0 hours
[8] = 6 h, replicate number 1, timepoint 6 hours
[9] = 12 h, replicate number 1, timepoint 12 hours
[10] = 18 h, replicate number 2, timepoint 18 hours
Further: filed as whole numbers so only -1 and 0 and 1 occur.

## Cn1cc(-c2ccc3occ(-c4ccccc4-c4ccccc4)c3n2)cn1
HEK-293T; [1]
  Growth Rate: 0
HEK-293T; [2]
  Growth Rate: 1
HEK-293T; [3]
  Growth Rate: 0
HEK-293T; [4]
  Growth Rate: 1
HEK-293T; [5]
  Growth Rate: 1
HEK-293T; [6]
  Growth Rate: 0
Fibroblast; [7]
  Growth Rate: 0
Fibroblast; [8]
  Growth Rate: 1
Fibroblast; [9]
  Growth Rate: 0
Fibroblast; [3]
  Growth Rate: 1
Fibroblast; [4]
  Growth Rate: 0
Fibroblast; [10]
  Growth Rate: 1
Fibroblast; [5]
  Growth Rate: 0
U2OS; [1]
  Growth Rate: 0
U2OS; [8]
  Growth Rate: 1
U2OS; [9]
  Growth Rate: 1
U2OS; [4]
  Growth Rate: 0
U2OS; [10]
  Growth Rate: 1
U2OS; [5]
  Growth Rate: 1

## CN(C)C(=O)Cn1cc(-c2nc(C3(c4ccc(-c5cnc(N)nc5)cc4)CC3)no2)cn1 [BI 0153]
HEK-293T; [7]
  Growth Rate: 1
HEK-293T; [8]
  Growth Rate: 0
HEK-293T; [2]
  Growth Rate: 1
HEK-293T; [9]
  Growth Rate: 0
HEK-293T; [3]
  Growth Rate: 1
HEK-293T; [4]
  Growth Rate: 0
HEK-293T; [5]
  Growth Rate: 0
HEK-293T; [6]
  Growth Rate: 1
Fibroblast; [1]
  Growth Rate: 1
Fibroblast; [7]
  Growth Rate: 0
Fibroblast; [8]
  Growth Rate: 0
Fibroblast; [9]
  Growth Rate: 0
Fibroblast; [3]
  Growth Rate: 1
Fibroblast; [4]
  Growth Rate: 0
Fibroblast; [5]
  Growth Rate: 0
Fibroblast; [6]
  Growth Rate: 1
U2OS; [1]
  Growth Rate: 0
U2OS; [8]
  Growth Rate: 0
U2OS; [9]
  Growth Rate: 0
U2OS; [4]
  Growth Rate: 0
U2OS; [5]
  Growth Rate: 0
U2OS; [6]
  Growth Rate: 1

## Cc1cc(NC(=O)Nc2ccc(N(C)C)cc2)c2cc(F)cc(F)c2n1
HEK-293T; [1]
  Growth Rate: 0
HEK-293T; [8]
  Growth Rate: 0
HEK-293T; [9]
  Growth Rate: 0
HEK-293T; [4]
  Growth Rate: 0
HEK-293T; [5]
  Growth Rate: 0
Fibroblast; [1]
  Growth Rate: 1
Fibroblast; [8]
  Growth Rate: 0
Fibroblast; [9]
  Growth Rate: 1
Fibroblast; [4]
  Growth Rate: 1
Fibroblast; [5]
  Growth Rate: 1
U2OS; [7]
  Growth Rate: 0
U2OS; [8]
  Growth Rate: 0
U2OS; [9]
  Growth Rate: 0
U2OS; [3]
  Growth Rate: 1
U2OS; [4]
  Growth Rate: 0
U2OS; [5]
  Growth Rate: 0

## CCOC(=O)c1cc(C#N)c(N2CCC(C(=O)NS(=O)(=O)Cc3ccccc3)CC2)nc1C
HEK-293T; [1]
  Growth Rate: 1
HEK-293T; [7]
  Growth Rate: 0
HEK-293T; [8]
  Growth Rate: 0
HEK-293T; [2]
  Growth Rate: 1
HEK-293T; [9]
  Growth Rate: 0
HEK-293T; [4]
  Growth Rate: 0
HEK-293T; [5]
  Growth Rate: 0
HEK-293T; [6]
  Growth Rate: 1
Fibroblast; [1]
  Growth Rate: 0
Fibroblast; [8]
  Growth Rate: 0
Fibroblast; [9]
  Growth Rate: 0
Fibroblast; [4]
  Growth Rate: 0
Fibroblast; [5]
  Growth Rate: 1
Fibroblast; [6]
  Growth Rate: 0
U2OS; [7]
  Growth Rate: 1
U2OS; [8]
  Growth Rate: 1
U2OS; [2]
  Growth Rate: 0
U2OS; [9]
  Growth Rate: 0
U2OS; [3]
  Growth Rate: 1
U2OS; [4]
  Growth Rate: 0
U2OS; [10]
  Growth Rate: 1
U2OS; [5]
  Growth Rate: 0
U2OS; [6]
  Growth Rate: 1

## CCCCN(CCCC)C(=O)CN1C[C@@H](c2ccc3c(c2)OCO3)[C@H](C(=O)O)[C@H]1c1ccc(OC)cc1
HEK-293T; [1]
  Growth Rate: 0
HEK-293T; [8]
  Growth Rate: 1
HEK-293T; [9]
  Growth Rate: 1
HEK-293T; [4]
  Growth Rate: 1
HEK-293T; [10]
  Growth Rate: 0
HEK-293T; [5]
  Growth Rate: 1
HEK-293T; [6]
  Growth Rate: 0
Fibroblast; [1]
  Growth Rate: 0
Fibroblast; [2]
  Growth Rate: 0
Fibroblast; [3]
  Growth Rate: 1
Fibroblast; [4]
  Growth Rate: 1
Fibroblast; [5]
  Growth Rate: 1
Fibroblast; [6]
  Growth Rate: 0
U2OS; [8]
  Growth Rate: 0
U2OS; [9]
  Growth Rate: 0
U2OS; [4]
  Growth Rate: 0
U2OS; [5]
  Growth Rate: 0

## CCCc1cc(C)[nH]c(=O)c1CNC(=O)c1cc(-c2ccnc(N3CCN(C)CC3)c2)cc2c1cnn2C(C)C
HEK-293T; [7]
  Growth Rate: 1
HEK-293T; [8]
  Growth Rate: 0
HEK-293T; [9]
  Growth Rate: 0
HEK-293T; [4]
  Growth Rate: 0
HEK-293T; [5]
  Growth Rate: 0
Fibroblast; [1]
  Growth Rate: 0
Fibroblast; [2]
  Growth Rate: 0
Fibroblast; [9]
  Growth Rate: 1
Fibroblast; [4]
  Growth Rate: 1
Fibroblast; [10]
  Growth Rate: 0
Fibroblast; [5]
  Growth Rate: 1
Fibroblast; [6]
  Growth Rate: 0
U2OS; [1]
  Growth Rate: 0
U2OS; [8]
  Growth Rate: 0
U2OS; [9]
  Growth Rate: 1
U2OS; [4]
  Growth Rate: 0
U2OS; [5]
  Growth Rate: 0
U2OS; [6]
  Growth Rate: 1

## Nc1nc(NCc2ccccc2)nc(-c2cccc(CO)c2)n1 [ZINC32547799]
HEK-293T; [1]
  Growth Rate: 0
HEK-293T; [8]
  Growth Rate: 0
HEK-293T; [9]
  Growth Rate: 0
HEK-293T; [4]
  Growth Rate: 0
HEK-293T; [5]
  Growth Rate: 0
Fibroblast; [1]
  Growth Rate: 0
Fibroblast; [8]
  Growth Rate: 0
Fibroblast; [9]
  Growth Rate: 0
Fibroblast; [3]
  Growth Rate: 1
Fibroblast; [4]
  Growth Rate: 0
Fibroblast; [5]
  Growth Rate: 0
Fibroblast; [6]
  Growth Rate: 1
U2OS; [1]
  Growth Rate: 0
U2OS; [2]
  Growth Rate: 0
U2OS; [9]
  Growth Rate: 1
U2OS; [4]
  Growth Rate: 1
U2OS; [5]
  Growth Rate: 1

## CN(C)C(=O)c1ccc(-c2cc(C(=O)N(C)C3CCCC3)no2)cc1O
HEK-293T; [1]
  Growth Rate: 0
HEK-293T; [8]
  Growth Rate: 1
HEK-293T; [9]
  Growth Rate: 0
HEK-293T; [3]
  Growth Rate: 1
HEK-293T; [4]
  Growth Rate: 1
HEK-293T; [5]
  Growth Rate: 1
Fibroblast; [1]
  Growth Rate: 0
Fibroblast; [9]
  Growth Rate: 1
Fibroblast; [4]
  Growth Rate: 1
Fibroblast; [5]
  Growth Rate: 1
U2OS; [1]
  Growth Rate: 1
U2OS; [8]
  Growth Rate: 1
U2OS; [9]
  Growth Rate: 1
U2OS; [4]
  Growth Rate: 1
U2OS; [10]
  Growth Rate: 0
U2OS; [5]
  Growth Rate: 1
U2OS; [6]
  Growth Rate: 0

## Cc1cc(C)cc(C(=O)N(C)[C@H](Cc2ccc(-c3ccccc3)cc2)C(=O)N[C@@H](Cc2c[nH]c3ccccc23)C(=O)O)c1
HEK-293T; [1]
  Growth Rate: 1
HEK-293T; [7]
  Growth Rate: 0
HEK-293T; [8]
  Growth Rate: 0
HEK-293T; [9]
  Growth Rate: 0
HEK-293T; [4]
  Growth Rate: 0
HEK-293T; [5]
  Growth Rate: 0
Fibroblast; [1]
  Growth Rate: 0
Fibroblast; [2]
  Growth Rate: 0
Fibroblast; [3]
  Growth Rate: 1
Fibroblast; [10]
  Growth Rate: 1
Fibroblast; [6]
  Growth Rate: 1
U2OS; [7]
  Growth Rate: 0
U2OS; [8]
  Growth Rate: 0
U2OS; [9]
  Growth Rate: 0
U2OS; [3]
  Growth Rate: 1
U2OS; [4]
  Growth Rate: 0
U2OS; [10]
  Growth Rate: 1
U2OS; [5]
  Growth Rate: 0
U2OS; [6]
  Growth Rate: 1

## CCC(=O)N1CC[C@H](Nc2ncnc3c2CN(c2cnc(OC)c(C(F)(F)F)c2)CC3)C1 [LENIOLISIB]
HEK-293T; [2]
  Growth Rate: 0
HEK-293T; [3]
  Growth Rate: 1
HEK-293T; [6]
  Growth Rate: 1
Fibroblast; [7]
  Growth Rate: 1
Fibroblast; [8]
  Growth Rate: 0
Fibroblast; [9]
  Growth Rate: 0
Fibroblast; [4]
  Growth Rate: 0
Fibroblast; [5]
  Growth Rate: 0
U2OS; [1]
  Growth Rate: 0
U2OS; [7]
  Growth Rate: 1
U2OS; [8]
  Growth Rate: 0
U2OS; [9]
  Growth Rate: 0
U2OS; [3]
  Growth Rate: 1
U2OS; [4]
  Growth Rate: 0
U2OS; [5]
  Growth Rate: 0

## Cc1cccc(NC(=O)N[C@@H]2N=C(c3ccccc3)c3ccccc3N(C)C2=O)c1 [L-365260]
HEK-293T; [1]
  Growth Rate: 0
HEK-293T; [8]
  Growth Rate: 0
HEK-293T; [9]
  Growth Rate: 0
HEK-293T; [4]
  Growth Rate: 0
HEK-293T; [5]
  Growth Rate: 0
Fibroblast; [1]
  Growth Rate: 0
Fibroblast; [9]
  Growth Rate: 1
Fibroblast; [4]
  Growth Rate: 0
Fibroblast; [5]
  Growth Rate: 1
U2OS; [1]
  Growth Rate: 0
U2OS; [7]
  Growth Rate: 1
U2OS; [8]
  Growth Rate: 0
U2OS; [9]
  Growth Rate: 1
U2OS; [3]
  Growth Rate: 0
U2OS; [4]
  Growth Rate: 0
U2OS; [5]
  Growth Rate: 0
U2OS; [6]
  Growth Rate: 1

## CNc1nc(-c2ccc3c(N)n[nH]c3c2)cc(N2C[C@@H](C(=O)NC3CCCCC3)CC[C@H]2C)n1
HEK-293T; [1]
  Growth Rate: 0
HEK-293T; [7]
  Growth Rate: 1
HEK-293T; [2]
  Growth Rate: 0
HEK-293T; [3]
  Growth Rate: 0
HEK-293T; [10]
  Growth Rate: 1
HEK-293T; [5]
  Growth Rate: 1
HEK-293T; [6]
  Growth Rate: 0
Fibroblast; [1]
  Growth Rate: 0
Fibroblast; [8]
  Growth Rate: 1
Fibroblast; [9]
  Growth Rate: 0
Fibroblast; [4]
  Growth Rate: 0
Fibroblast; [5]
  Growth Rate: 0
U2OS; [8]
  Growth Rate: 1
U2OS; [9]
  Growth Rate: 0
U2OS; [3]
  Growth Rate: 1
U2OS; [4]
  Growth Rate: 0
U2OS; [5]
  Growth Rate: 0
